Results: patent US20240294551A1 (AMGEN INC., priority 2022, published 2024)
Like-named read-outs stand apart in the source and are kept apart here.

Columns and labels:
[1] = target: His-tagged KRAS G12D protein (Homo sapiens (Human), UniProt P01116, G12D); assay: KRAS G12D TR-FRET Assay; format: binding
Method in brief: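 His-tagged KRAS G12D (diluted to 20 nM in pH 7.4 HEPES buffer with 10 mM MgCl2 and 10 μM GDP) was preincubated with titrated compound for 30 min at room temperature. Biotinylated KRPep-2d peptide (diluted to 20 nM) was then added for 1 h, and displacement was monitored by TR-FRET.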

AsPC-1 cells = assay: AsPC-1 CTG Assay (CellTiter-Glo cell viability); format: cell-based, human; conditions: first value of the cell, read-out: G12D/C/V Cell Proliferation CTG (72 h) AsPC-1
Method in brief: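 Human pancreatic AsPC-1 or colon SW620 cells in RPMI 1640 with 10% FBS, seeded overnight, then exposed to serially diluted compound for 72 h at 37 °C. CellTiter-Glo luminescence normalized to DMSO control; IC50 from a 4-parameter logistic model.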

[2] = target: GDP-bound KRAS protein (aa 1-169), containing both G12D and C118A amino acid substitutions (Homo sapiens (Human), UniProt P01116, C118A/G12D); assay: KRAS G12D Coupled Nucleotide Exchange Assay; format: biochemical
[3] = system: Phosphorylation of ERK1/2 in AsPC-1 cells; assay: Phospho-ERK1/2 MSD Assay; format: cell-based, human
Method in brief: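 Read-out: MSD electrochemiluminescent detection of phosphorylated ERK1/2 in whole-cell lysates, fitted to a 4-parameter logistic curve for IC50. Prior to lysis, AsPC-1 cells (25,000 per well) received a 2 h compound dose-response at 37 °C.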

[4] = read-out: KRAS G12D Binding IC50
[5] = Homo sapiens, ASPC1, 72 h, AsPC-1, 72 h
[6] = read-out: KRAS G12D Coupled Exchange IC50
[7] = Homo sapiens, ASPC1, 2 h, read-out: 2 h p-ERK (AsPC-1 cells), IC50
[8] = TR-FRET, read-out: KRAS G12D Binding
[9] = Homo sapiens, ASPC1, 72 h, AsPC-1 cells (G12D), 72 h
[10] = 2 hours compound pre-incubation, read-out: KRAS G12D Coupled Exchange
[11] = Homo sapiens, ASPC1, 2 h, read-out: 2 h p-ERK (AsPC-1 cells)

Row | Molecule | IC50 [1, 4] | IC50 (AsPC-1 cells; [5]) | IC50 [2, 6] | IC50 [3, 7] | IC50 [1, 8] | IC50 (AsPC-1 cells; [9]) | IC50 [2, 10] | IC50 [3, 11] | IC50 (AsPC-1 cells; AsPC-1, 72 h) | IC50 ([3]; 2 h, read-out: 2 h p-ERK (AsPC-1 cells), IC50)
1 | O=C1OCCc2c(Cl)cc3[nH]ncc3c2-c2ncc3c(nc(OC[C@@]45CCCN4C[C@@H](F)C5)nc3c2F)N2CCC[C@]3(C2)C[C@H](C3)O1 [Example 350, (1R,3S)-10-chloro-32-fluoro-24-(((2S,7aS)-2-fluorotetrahydro-1H-pyrrolo[1,2-a]pyrrol-7a(5H)-yl)methoxy)-4,6-dioxa-13,14,19,23,25,27-hexaazaheptacyclo[25.3.1.1~1,3~.1~18,22~.0~9,17~.0~12,16~.0~21,26~]tritriaconta-9,11,14,16,18(32),19,21,23,25-nonaen-5-one] | 6 nM | 545 nM | 3 nM | 58.1 nM | – | – | – | – | – | –
2 | O=C1OCCCc2c(Cl)cc(O)cc2-c2ncc3c(nc(OC[C@@]45CCCN4C[C@H](F)C5)nc3c2F)N2CCOC[C@H](C2)O1 [Example 355, (23S)-15-chloro-29-fluoro-4-(((2R,7aS)-2-fluorotetrahydro-1H-pyrrolo[1,2-a]pyrrol-7a(5H)-yl)methoxy)-13-hydroxy-20,22,25-trioxa-1,3,5,9-tetraazapentacyclo[21.4.1.1~6,10~.0~2,7~.0~11,16~]nonacosa-2,4,6,8,10(29),11,13,15-octaen-21-one] | 2 nM | 82 nM | 1 nM | 5.2 nM | – | – | – | – | – | –
3 | O=C1OCCc2c(Cl)cc3[nH]ncc3c2-c2cc3nc(OC[C@@]45CCCN4C[C@H](F)C5)nc(c3nn2)N2CCC[C@]3(C2)C[C@H](C3)O1 [Example 357, (1R,3S)-10-chloro-24-(((2R,7aS)-2-fluorotetrahydro-1H-pyrrolo[1,2-a]pyrrol-7a(5H)-yl)methoxy)-4,6-dioxa-13,14,19,20,23,25,27-heptaazaheptacyclo[25.3.1.1~1,3~.1~18,22~.0~9,17~.0~12,16~.0~21,26~]tritriaconta-9,11,14,16,18(32),19,21,23,25-nonaen-5-one] | 14 nM | 1970 nM | 10 nM | 234 nM | – | – | – | – | – | –
4 | Fc1c2ncc3c(nc(OC[C@@]45CCCN4C[C@H](F)C5)nc13)N1CCO[C@@H](Cc3ncc(o3)CCc3c(Cl)cc4[nH]ncc4c3-2)C1 [Example 374] | – | – | – | – | 5 nM | 127 nM | 4 nM | 32.7 nM | – | –
5 | Fc1c2ncc3c(nc(OC[C@@]45CCCN4C[C@H](F)C5)nc13)N1CCO[C@H](C1)c1coc(n1)CCCc1c(Cl)cc3[nH]ncc3c1-2 [Example 390, (18R)-9-chloro-31-fluoro-25-(((2R,7aS)-2-fluorotetrahydro-1H-pyrrolo[1,2-a]pyrrol-7a(5H)-yl)methoxy)-15,19-dioxa-5,6,22,24,26,30,33-heptaazaheptacyclo[25.3.1.1~14,17~.1~18,22~.0~2,10~.0~3,7~.0~23,28~]tritriaconta-1(31),2,4,7,9,14(33),16,23,25,27,29-undecaene] | – | – | – | – | 5 nM | 74 nM | 3 nM | 9.5 nM | – | –
6 | Fc1c2ncc3c(nc(OC[C@@]45CCCN4C[C@H](F)C5)nc13)N1CCO[C@@H](COCC[C@@H]3C[C@@H]3c3c(Cl)cc4[nH]ncc4c3-2)C1 [Example 392, (11S,13S,18R)-9-chloro-31-fluoro-25-(((2R,7aS)-2-fluorotetrahydro-1H-pyrrolo[1,2-a]pyrrol-7a(5H)-yl)methoxy)-16,19-dioxa-5,6,22,24,26,30-hexaazaheptacyclo[25.3.1.1~18,22~.0~2,10~.0~3,7~.0~11,13~.0~23,28~]dotriaconta-1(31),2,4,7,9,23,25,27,29-nonaene] | – | – | – | – | 6 nM | 291 nM | 4 nM | 31.5 nM | – | –
7 | CN(C)CC1(COc2nc3c4cnc(c(F)c4n2)-c2c(c(Cl)cc4[nH]ncc24)CCCCO[C@H]2C[C@]4(CCCN3C4)C2)CC1 [Example 405, 1-(1-((((1S,3R)-10-chloro-32-fluoro-4-oxa-13,14,19,23,25,27-hexaazaheptacyclo[25.3.1.1~1,3~.1~18,22~.0~9,17~.0~12,16~.0~21,26~]tritriaconta-9,11,14,16,18(32),19,21,23,25-nonaen-24-yl)oxy)methyl)cyclopropyl)-N,N-dimethylmethanamine] | – | – | – | – | 5 nM | 174 nM | 4 nM | 41.2 nM | – | –
8 | O[C@@H]1C[C@@H]2COCCCCc3c(Cl)cc4[nH]ncc4c3-c3ncc4c(nc(OC[C@@]56CCCN5C[C@H](F)C6)nc4c3F)N(C1)C2 [Example 406, (17S,19R)-9-Chloro-30-fluoro-24-(((2R,7aS)-2-fluorotetrahydro-1H-pyrrolo[1,2-a]pyrrol-7a(5H)-yl)methoxy)-15-oxa-5,6,21,23,25,29-hexaazahexacyclo[24.3.1.1˜17,21˜.0˜2,10˜.0˜3,7˜.0˜22,27˜]hentriaconta-1(30),2,4,7,9,22,24,26,28-nonaen-19-ol] | – | – | – | – | 21 nM | 1940 nM | 4 nM | 261 nM | – | –
9 | O[C@H]1C[C@H]2COCCCCc3c(Cl)cc4[nH]ncc4c3-c3ncc4c(nc(OC[C@@]56CCCN5C[C@H](F)C6)nc4c3F)N(C1)C2 [Example 407, (17R,19S)-9-chloro-30-fluoro-24-(((2R,7aS)-2-fluorotetrahydro-1H-pyrrolo[1,2-a]pyrrol-7a(5H)-yl)methoxy)-15-oxa-5,6,21,23,25,29-hexaazahexacyclo[24.3.1.1˜17,21˜.0˜2,10˜.0˜3,7˜.0˜22,27˜]hentriaconta-1(30),2,4,7,9,22,24,26,28-nonaen-19-ol] | – | – | – | – | 6 nM | 49 nM | 1 nM | 2.5 nM | – | –
10 | (15R)-22,31-Difluoro-8-(((2R,7aS)-2-fluorotetrahydro-1H-pyrrolo[1,2-a]pyrrol-7a(5H)-yl)methoxy)-27-hydroxy-15-methyl-16-oxa-3,7,9,11-tetraazahexacyclo[19.7.1.1˜2,6˜.1˜11,15˜0.0˜5,10˜.0˜25,29˜]hentriaconta-1(28),2(31),3,5,7,9,21,23,25(29),26-decaen-17-one bis(2,2,2-trifluoroacetate) [Example 43] | 4 nM | – | 2 nM | – | – | – | – | – | 92 nM | 13 nM

The remaining lines, values ahead:

Row | IC50 [1, 4] | IC50 (AsPC-1 cells; [5]) | IC50 [2, 6] | IC50 [3, 7] | IC50 [1, 8] | IC50 (AsPC-1 cells; [9]) | IC50 [2, 10] | IC50 [3, 11] | IC50 (AsPC-1 cells; AsPC-1, 72 h) | IC50 ([3]; 2 h, read-out: 2 h p-ERK (AsPC-1 cells), IC50) | Molecule
11 | 4 nM | 94 nM | 3 nM | 8.2 nM | – | – | – | – | – | – | O=C1OCCc2c(F)cc3[nH]ncc3c2-c2ncc3c(nc(OC[C@@]45CCCN4C[C@H](F)C5)nc3c2F)N2CCC[C@]3(C2)C[C@H](C3)O1 [Example 356, (1R,3S)-10,32-difluoro-24-(((2R,7aS)-2-fluorotetrahydro-1H-pyrrolo[1,2-a]pyrrol-7a(5H)-yl)methoxy)-4,6-dioxa-13,14,19,23,25,27-hexaazaheptacyclo[25.3.1.1~1,3~.1~18,22~.0~9,17~.0~12,16~.0~21,26~]tritriaconta-9,11,14,16,18(32),19,21,23,25-nonaen-5-one]
12 | 13 nM | 5000 nM | 8 nM | 363 nM | – | – | – | – | – | – | C#CCO[C@@H]1CN2CCC[C@@]2(COc2nc3c4cnc(c(F)c4n2)-c2c(c(Cl)cc4[nH]ncc24)CCCOC(=O)O[C@@H]2COCCN3C2)C1 [Example 369, (26S)-18-Chloro-32-fluoro-4-(((2S,7aS)-2-(2-propyn-1-yloxy)tetrahydro-1H-pyrrolo[1,2-a]pyrrol-7a(5H)-yl)methoxy)-23,25,28-trioxa-1,3,5,9,14,15 hexaazahexacyclo[24.4.1.1˜6,10˜.0˜2,7˜.0˜11,19˜.0˜12,16˜]dotriaconta-2,4,6,8,10(32),11,13,16,18-nonaen-24-one]
13 | – | – | – | – | 7 nM | 2 nM | 3 nM | 1.2 nM | – | – | O[C@]12C[C@@]3(CCCN(C3)c3nc(OC[C@@]45CCCN4C[C@H](F)C5)nc4c(F)c(ncc34)-c3c(c(Cl)cc4[nH]ncc34)CCc3cnc1o3)C2 [Example 396, (1S,3R)-11-chloro-33-fluoro-25-(((2R,7aS)-2-fluorotetrahydro-1H-pyrrolo[1,2-a]pyrrol-7a(5H)-yl)methoxy)-34-oxa-5,14,15,20,24,26,28-heptaazaoctacyclo[26.3.1.1~1,3~.1~4,7~.1~19,23~.0~10,18~.0~13,17~.0~22,27~]pentatriaconta-4,6,10,12,15,17,19(33),20,22,24,26-undecaen-3-ol]
14 | – | – | – | – | 3 nM | 639 nM | 2 nM | 180 nM | – | – | O=C1CCCCc2c(Cl)cc3[nH]ncc3c2-c2ncc3c(nc(OC[C@@]45CCCN4C[C@H](F)C5)nc3c2F)N2CC[C@@H]3[C@H](C2)N1CC3(F)F [Example 403, (28R,32R)-18-chloro-27,27,33-trifluoro-4-(((2R,7aS)-2-fluorotetrahydro-1H-pyrrolo[1,2-a]pyrrol-7a(5H)-yl)methoxy)-1,3,5,9,14,15,25-heptaazaheptacyclo[23.5.2.1~6,10~.0~2,7~.0~11,19~.0~12,16~.0~28,32~]tritriaconta-2,4,6,8,10(33),11,13,16,18-nonaen-24-one]
